The numbers were not newly measured in patent US20250073171A1, “DRUG DELIVERY SYSTEM FOR THE TREATMENT OF FEMALE SEXUAL INTEREST AND AROUSAL DISORDER” (Freya Pharma Solutions Holding B.V., priority 2023, published 2025), which cites them from elsewhere.

In one data set the target is albumin (Homo sapiens, UniProt P02768). The note with it: bloodstream.
Another data set has as its target T1, SHBG (Homo sapiens, UniProt P04278).
T1 sequence (P04278 30-402): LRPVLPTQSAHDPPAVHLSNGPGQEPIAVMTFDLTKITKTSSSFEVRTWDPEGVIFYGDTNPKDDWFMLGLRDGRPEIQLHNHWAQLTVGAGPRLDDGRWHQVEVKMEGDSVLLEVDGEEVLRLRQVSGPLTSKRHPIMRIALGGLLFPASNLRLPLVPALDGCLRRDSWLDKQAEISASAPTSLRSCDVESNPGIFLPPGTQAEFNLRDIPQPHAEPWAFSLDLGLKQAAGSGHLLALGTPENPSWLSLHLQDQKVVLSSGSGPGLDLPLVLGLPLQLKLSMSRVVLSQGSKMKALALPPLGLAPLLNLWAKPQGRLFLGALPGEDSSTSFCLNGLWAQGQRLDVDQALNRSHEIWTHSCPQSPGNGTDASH
As to conditions: bloodstream.

The structures appear in SMILES notation.

Chain of albumin (P02768 25-609): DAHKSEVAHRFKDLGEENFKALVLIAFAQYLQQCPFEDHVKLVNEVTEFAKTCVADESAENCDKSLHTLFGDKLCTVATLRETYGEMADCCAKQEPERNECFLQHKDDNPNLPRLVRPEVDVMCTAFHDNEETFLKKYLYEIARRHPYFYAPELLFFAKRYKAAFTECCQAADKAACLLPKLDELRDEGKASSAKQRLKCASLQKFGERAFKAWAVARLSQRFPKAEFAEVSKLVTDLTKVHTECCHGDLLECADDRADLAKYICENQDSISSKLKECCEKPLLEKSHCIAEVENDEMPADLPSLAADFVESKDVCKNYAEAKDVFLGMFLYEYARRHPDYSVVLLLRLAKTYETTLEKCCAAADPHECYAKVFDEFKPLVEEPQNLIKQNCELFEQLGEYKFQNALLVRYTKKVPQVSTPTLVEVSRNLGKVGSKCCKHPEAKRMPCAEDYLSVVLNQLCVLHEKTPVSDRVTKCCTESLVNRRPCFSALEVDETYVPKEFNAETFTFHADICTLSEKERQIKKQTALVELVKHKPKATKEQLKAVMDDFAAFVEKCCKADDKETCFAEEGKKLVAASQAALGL

With `C[C@]12CC[C@H]3[C@@H](CCC4=CC(=O)CC[C@@]43C)[C@@H]1CC[C@@H]2O` [testosterone, 17-[beta]-hydroxyandrost-4-en-3-one], on albumin, the “albumin-bound testosterone, percentage of total testosterone” value is 30-40%. At SHBG, the “SHBG-bound testosterone, percentage of total testosterone” value was 60-70%. In addition, where the note is “bloodstream”, the “free testosterone, percentage of total testosterone” value is 1-2%. Moreover, the “T1/2 of free testosterone” value (metabolism of free testosterone) is on record as “approximately 10 min”.
